Values quoted from earlier work in US12569533B2, “Bruising and filler compositions and methods for use” (Alastin Skincare, Inc., priority 2021, dated 2026).

Test system: hyaluronic acid level
Conditions: ex vivo human skin model

CCCCCCCC(=O)CCc1ccc(O)c(OC)c1 [Hydroxymethoxyphenyl decanone]
stimulation of dermal hyaluronic acid level versus placebo (dermal): 259% | stimulation of epidermal hyaluronic acid level versus placebo (epidermal): 198%
